Measured values as given in article PMC6021032, “Antimycobacterial activity of nitrogen heterocycles derivatives: 7-(pyridine-4-yl)-indolizine derivatives. Part VII^8–12” (Journal of Enzyme Inhibition and Medicinal Chemistry, 2017).
≈ marks a conversion by molar mass, not a printed value.

Key:
[1] = test system: Mycobacterium tuberculosis H37Rv; test: Primary screen (Cycle 1): MIC, IC50, IC90 under aerobic conditions; assay type: cell-based
[2] = Plasma protein binding by equilibrium dialysis; conditions: Human plasma protein binding assay
Caco-2-cell monolayer = test: Caco-2 permeability assay
Procedure: The Caco-2 cell layer permeability assay is widely used as a more predictive in vitro model of absorption through the intestinal epithelium. […] For B–A permeability, test compound was added to the basal side of the Caco-2 monolayer and the transport of the compound to the apical side monitored. The amount of compound present in each compartment was quantified by LC-MS/MS.
recovered and analyzed by LC-MS/MS.
3.2. Caco-2 Permeability Assay
feeding at 2-day intervals.
Each experiment included the
contained transport buffer at pH 7.4.
3.3. Cytochrome P450 Inhibition Assay
and was < 0.2%. Samples were run in duplicate. Compounds were incubated with human liver

[3] = human
Mtb = test system: Mtb; set-up: method as in PMID 24268596; conditions: reported anti-TB activity of compound 1; cited from earlier work
[4] = Cytotoxicity, THP-1 cell viability (CellTiter-Glo); conditions: human
[5] = test system: THP-1 cell line infected with Mtb; test: Intracellular activity assay, luminescence; assay type: cell-based, Mycobacterium tuberculosis; conditions: Mycobacterium tuberculosis, Mtb-infected THP-1 cells, 72 h; for IC50: read-out: IC50 intracell; for IC90: read-out: IC90 intracell
Procedure: Since the overall efficacy of any anti TB drug will be improved by its ability to traffic into the macrophage phagosome containing replicating bacteria, we evaluated the intracellular activity of compounds[24]. This was measured by using THP-1 cell line infected with Mtb. Infected cells were exposed to compounds for 72 h and viable bacterial counts were measured using luminescence as a measure of intracellular growth.
Assay (Promega) which uses ATP as an indicator of cell viability. Relative luminescent units (RLU) were measured using a Biotek Synergy 4 plate reader. The dose response curve was fitted using the Levenberg–Marquardt algorithm. The IC50 was defined as the compound […]
Intracellular Activity Assay
The activity of compounds against intracellular bacteria was determined by measuring viability in infected THP-1 cell after 3 days in the presence of test compounds. Compounds were prepared as 10-point three-fold serial dilutions in DMSO. The highest concentration of […]
THP-1 cells were cultured in complete RPMI and differentiated into macrophage-like cells using 80 nM PMA overnight at 37°C, 5% CO2. THP-1 cells were infected with a luminescent strain of H37Rv (which constitutively expresses luxABCDE) at a multiplicity of infection of 1 and incubated overnight at 37°C, 5% CO2. Infected cells were recovered using Accutase/EDTA solution, washed twice with PBS to remove extracellular bacteria and seeded into assay pates. Compound dilutions were added to a final DMSO concentration of 0.5%.
Assay plates were incubated for 72 h at 37°C, 5% CO2. Each run included isoniazid as a control. Relative luminescent units (RLU) were measured using a Biotek Synergy 2 plate reader. The dose response curve was fitted using the Levenberg–Marquardt algorithm. The […]
inhibition of growth respectively.
3. Cycle 3 – Absorption, distribution, metabolism, excretion and toxicity (ADMET)
3.1. Plasma Protein Binding Assay
Compounds were added to human plasma at a fixed concentration of 5 µM. The mixture was dialyzed in a RED device (Rapid Equilibrium Dialysis, Pierce) against PBS and incubated on an orbital shaker for 4 h at 37 °C. Aliquots from plasma and PBS sides were collected; an equal volume of PBS was added to the plasma sample, and an equal volume of plasma was added to the PBS sample. Three volumes of methanol (containing the internal binding standard propranolol) was added to precipitate the proteins and release the compound.
Each compound was tested in duplicate. Samples were centrifuged, the supernatant was […]

Mtb H37Rv = test: LORA parallel plates, oxygen-deprived bacteria incubated under aerobic conditions (normal oxygen); assay type: cell-based, Mycobacterium tuberculosis; conditions: Mycobacterium tuberculosis, H37RV; for MIC: 120 h, oxygen-deprived bacteria, aerobic 5 d
M. tuberculosis H37Rv = test: Cycle 2 repeat of MIC, IC50, IC90 under aerobic conditions (lower starting concentrations); assay type: cell-based, Mycobacterium tuberculosis; conditions: Mycobacterium tuberculosis, revaluation; for IC50 / IC90: aerobic; for MIC: repeated at lower starting concentrations, read-out: MIC aerobic condition
Mycobacterium avium = test: MIC against nontuberculous mycobacteria (Alamar blue); assay type: cell-based; conditions: M. avium
Mycobacterium abscessus = test: MIC, IC50, IC90 against nontuberculous mycobacteria (OD590); assay type: cell-based; conditions: Mycobacteroides abscessus, M. abscessus; for MIC: read-out: MIC
in vitro = conditions: human
[6] = In vitro microsomal stability assay; conditions: human, 1 μM, 37 °C
Description: The stability of compound is expressed as a function of time[41]^,[42]
3.4. In vitro Microsomal Stability Assay
compound to detect NADPH-free degradation. Verapamil and dextromethorphan were
included as control compounds.

[7] = test system: human liver cells (HepG2); test: HepG2 cytotoxicity (CellTiter-Glo); assay type: cell-based; conditions: read-out: IC50 (50% loss of viability), 72 h
[8] = M. tuberculosis H37Rv, aerobic conditions, primary screen
[9] = MIC value taken from the first MIC assay
[10] = Mycobacterium tuberculosis, M. tuberculosis H37Rv, aerobic conditions, primary screen

4-[3-(4-Bromophenyl)-1-(ethoxycarbonyl)indolizine-7-yl)-1-(2-(4-methoxyphenyl)-2-oxoethyl)pyridine-1-ium bromide [Compound 6g]
IC50 [1, 8]: 35 µM
IC90 [1, 8]: 46 µM
MIC [1, 8]: 50 µM

CC(C)NC[C@H](O)COc1cccc2ccccc12 (racemic) [Propanolol]
Recovery [2]: 93
Mean A→B Papp (Caco-2-cell monolayer; Caco-2, apical to basolateral): 12.7 10^−6cm/s
Mean B→A Papp (Caco-2-cell monolayer; Caco-2, basolateral to apical): 25 10^−6cm/s
efflux ratio (Caco-2-cell monolayer; Re = Papp (B→A)/Papp (A→B)): 2
Mean plasma fraction bound [3]: 79.3%
Mean plasma fraction unbound [3]: 20.7%

CCOC(=O)c1cc(C(=O)c2ccccc2)n2ccc(-c3cc[n+](CC(=O)c4ccc(OC)cc4)cc3)cc12 [Compound 1]
IC90 (Mtb): 13.1 µM
MIC (Mtb): 3.91 µM

CCOC(=O)c1cc(C(=O)c2ccccc2)n2ccc(-c3cc[n+](CC(=O)c4ccc(C)cc4)cc3)cc12.[Br-] [Compound 6a, 4-(3-Benzoyl-1-(ethoxycarbonyl)indolizine-7-yl)-1-(2-oxo-2-(p-tolyl)ethyl)pyridin-1-ium bromide]
IC50 at 3 days [4]: 2.9 µM
IC50 [5]: 5.2 µM
IC90 [5]: 15 µM
IC50 (Mtb H37Rv): 9.2 µM
IC90 (Mtb H37Rv): 42 µM
MIC (Mtb H37Rv): 100 µM
MIC [1, 9]: 14 µM
IC50 [1, 10]: 13 µM
IC90 [1, 10]: 15 µM
MIC [1, 10]: 14 µM
IC50 (M. tuberculosis H37Rv): 12 µM
IC90 (M. tuberculosis H37Rv): 23 µM
MIC (M. tuberculosis H37Rv): 22 µM
MIC (Mycobacterium avium): 50 µM
MIC (Mycobacterium avium; Mycobacterium avium): 50 µM
IC50 (Mycobacterium abscessus): 24 µM
IC90 (Mycobacterium abscessus): 37 µM
MIC (Mycobacterium abscessus): > 200 µM

CCOC(=O)c1cc(C(=O)c2ccccc2)n2ccc(-c3cc[n+](CC(=O)c4cccc(OC)c4)cc3)cc12 [Compound 6b, 4-(3-Benzoyl-1-(ethoxycarbonyl)indolizine-7-yl)-1-(2-(3-methoxyphenyl)-2-oxoethyl)pyridin-1-ium]
melting point: 255 to 256 °C
IC50 [1, 10]: 39 µM
IC90 [1, 10]: > 50 µM
MIC [1, 10]: > 50 µM

CCOC(=O)c1cc(C(=O)c2ccc(Cl)cc2)n2ccc(-c3cc[n+](CC(=O)c4cccc(OC)c4)cc3)cc12 [Compound 6d, 4-(3-(4-Chlorobenzoyl)-1-(ethoxycarbonyl)indolizine-7-yl)-1-(2-(3-methoxyphenyl)-2-oxoethyl)pyridin-1-ium]
IC50 at 3 days (in vitro): 3.9 µM
IC50 [5]: 11 µM
IC90 [5]: > 50 µM
IC50 (Mtb H37Rv): 17 µM
IC90 (Mtb H37Rv): 27 µM
MIC (Mtb H37Rv): 43 µM
melting point: 252 to 254 °C
MIC [1, 9]: 15 µM
IC50 [1, 10]: 14 µM
IC90 [1, 10]: 16 µM
MIC [1, 10]: 15 µM
IC50 (M. tuberculosis H37Rv): 12 µM
IC90 (M. tuberculosis H37Rv): 17 µM
MIC (M. tuberculosis H37Rv): 14 µM
MIC (Mycobacterium avium; Mycobacterium avium): 200 µM
IC50 (Mycobacterium abscessus): 81 µM
IC90 (Mycobacterium abscessus): 150 µM
MIC (Mycobacterium abscessus): > 200 µM

CCOC(=O)c1cc(C(=O)c2ccc(Cl)cc2)n2ccc(-c3cc[n+](CC(=O)c4ccc(F)cc4)cc3)cc12 [Compound 6e, 4-(3-(4-Chlorobenzoyl)-1-(ethoxycarbonyl)indolizine-7-yl)-1-(2-(4-fluorophenyl)-2-oxoethyl)pyridin-1-ium bromide]
IC50 [1, 10]: > 100 µM
IC90 [1, 10]: > 100 µM
MIC [1, 10]: > 100 µM

CCOC(=O)c1cc(C(=O)c2ccc(Br)cc2)n2ccc(-c3cc[n+](CC(=O)c4ccc(C)cc4)cc3)cc12.[Br-] [Compound 6f, 4-(3-(4-Bromobenzoyl)-1-(ethoxycarbonyl)indolizine-7-yl)-1-(2-oxo-2-(p-tolyl)ethyl)pyridin-1-ium bromide]
melting point: 283 to 284 °C
IC50 [1, 10]: 13 µM
IC90 [1, 10]: 19 µM
MIC [1, 10]: 20 µM

CCOC(=O)c1cc(C(=O)c2ccc(Br)cc2)n2ccc(-c3cc[n+](CC(=O)c4cccc(OC)c4)cc3)cc12 [Compound 6h, 4-(3-(4-Bromobenzoyl)-1-(ethoxycarbonyl)indolizine-7-yl)-1-(2-(3-methoxyphenyl)-2-oxoethyl)pyridin-1-ium]
IC50 at 3 days (in vitro): 3.8 µM
IC50 [5]: 13 µM
IC90 [5]: 43 µM
IC50 (Mtb H37Rv): 16 µM
IC90 (Mtb H37Rv): 24 µM
MIC (Mtb H37Rv): 38 µM
melting point: 256 to 259 °C
MIC [1, 9]: 14 µM
IC50 [1, 10]: 13 µM
IC90 [1, 10]: 14 µM
MIC [1, 10]: 14 µM
IC50 (M. tuberculosis H37Rv): 15 µM
IC90 (M. tuberculosis H37Rv): 26 µM
MIC (M. tuberculosis H37Rv): 27 µM
MIC (Mycobacterium avium; Mycobacterium avium): 200 µM
IC50 (Mycobacterium abscessus): > 200 µM
IC90 (Mycobacterium abscessus): > 200 µM
MIC (Mycobacterium abscessus): > 200 µM

CCOC(=O)c1cc(C(=O)c2ccc(Br)cc2)n2ccc(-c3cc[n+](CC(=O)c4ccc(Cl)cc4)cc3)cc12 [Compound 6j]
IC50 [1, 10]: > 200 µM
IC90 [1, 10]: > 200 µM
MIC [1, 10]: > 200 µM

CCOC(=O)c1cc(C(=O)c2ccc(C)cc2)n2ccc(-c3cc[n+](CC(=O)c4ccc([N+](=O)[O-])cc4)cc3)cc12 [Compound 6k]
IC50 [1, 10]: 200 µM
IC90 [1, 10]: > 200 µM
MIC [1, 10]: > 200 µM

CCOC(=O)c1cc(C(=O)c2ccc(OC)cc2)n2ccc(-c3cc[n+](CC(=O)c4ccc(Br)cc4)cc3)cc12 [Compound 6l]
IC50 [1, 10]: > 200 µM
IC90 [1, 10]: > 200 µM
MIC [1, 10]: > 200 µM

COc1ccc2c(c1)[C@]13CCCC[C@@H]1[C@H](C2)N(C)CC3 [Dextromethorphan, reference compound]
microsomal CLint at 1 μM ([6]; s9, NADPH-dependent CLint): 24.3 µL/min/mg
half-life at 1 μM ([6]; s9, NADPH-dependent T1/2, Human): 1.58 h
microsomal CLint at 1 μM ([6]; s9, NADPH-free CLint): < 12.8 µL/min/mg
half-life at 1 μM ([6]; s9, NADPH-free T1/2, Human): > 3 h

NNC(=O)c1ccncc1 [Isoniazid, reference compound]
IC50 [5]: 0.18 µM
IC90 [5]: 0.27 µM

Cc1ncc([N+](=O)[O-])n1CCO [Metronidazole, reference compound]
IC50 (Mtb H37Rv): > 200 µM
IC90 (Mtb H37Rv): > 200 µM
MIC (Mtb H37Rv): > 200 µM

CO[C@H]1/C=C/O[C@@]2(C)Oc3c(C)c(O)c4c(O)c(c(/C=N/N5CCN(C)CC5)c(O)c4c3C2=O)NC(=O)/C(C)=C\C=C\[C@H](C)[C@H](O)[C@@H](C)[C@@H](O)[C@@H](C)[C@H](OC(C)=O)[C@@H]1C [Rifampicin, reference compound]
IC50 (Mtb H37Rv): 0.0057 µM
IC90 (Mtb H37Rv): 0.011 µM
MIC (Mtb H37Rv): 0.021 µM (≈ 0.0173 µg/mL)
IC50 [1, 10]: 0.0036 µM
IC90 [1, 10]: 0.0071 µM
MIC [1, 10]: 0.0065 µM (≈ 0.00535 µg/mL)
IC50 (M. tuberculosis H37Rv): 0.0043 µM
IC90 (M. tuberculosis H37Rv): 0.0092 µM
MIC (M. tuberculosis H37Rv): 0.0071 µM (≈ 0.00584 µg/mL)
MIC (Mycobacterium avium; Mycobacterium avium): 0.098 µM (≈ 0.0806 µg/mL)
IC50 (Mycobacterium abscessus): 2.3 µM
IC90 (Mycobacterium abscessus): 3.6 µM
MIC (Mycobacterium abscessus): 3.6 µM (≈ 2.96 µg/mL)

CN[C@@H]1C[C@H]2O[C@@](C)([C@@H]1OC)n1c3ccccc3c3c4c(c5c6ccccc6n2c5c31)C(=O)NC4 [Staurosporine, reference compound]
IC50 [7]: 0.0086 µM
